Entries after “also recorded” stand apart in the source; their conditions may differ. Where no end group is shown, it is not given here.

The results in this text go back to patent US9139615B2, “High-affinity, dimeric inhibitors of PSD-95 as efficient neuroprotectants against ischemic brain damage and for treatment of pain” (University of Copenhagen, priority 2011, dated 2015).

In series [1] the test system is pMCAO model of cerebral focal ischemia. The series can be described thus: pMCAO model of cerebral focal ischemia, infarct volume. Format: in vivo, mice. The following applies: 3 nmol/g i.v. 30 min after pMCAO.
Series [2] deals with pMCAO model of ischemic stroke. The series can be described thus: Grip strength after pMCAO. Format: in vivo, mice. The following applies: 48 hours after pMCAO, 3 nmol/g i.v. The procedure:
The grip strength meter (BIO-GT-3, BIOSEB) allows the study of neuromuscular functions in mice by determining the maximum force that is required to make the mouse release its grip. The grip strength in individual paws was used to measure the severity of the pMCAO-induced asymmetry. The mouse is allowed to grasp a metal grid and then pulled backwards in the horizontal plane. The force applied to the grid is recorded as the peak tension. The strength of individual front paws and the total grip strength (both paws simultaneously) were measured before (baseline) and after pMCAO. Each mouse is tested in 5 sequential trials and the highest grip strength is recorded as the best score.

For series [3], the system named is pMCAO model of ischemic stroke. Description: Rotarod performance test after pMCAO. Format: in vivo, mice. The following applies: 48 hours after pMCAO; for total time spent on the rod: 3 nmol/g i.v., four trials. Here is the method:
The rotarod (LE 8200, Panlab) is well suited to evaluate motor activity in rodents, experimental compound effects on central nervous system damage, or disease effects on motor coordination, assessed by the time during which the animal remains walking in a rotating drum. The rotation of the rotarod is motor drived and accelerates from 0 to 40 rounds per min (rpm) over a time period of 5 min, at which time all mice have fallen off the rod. All mice were tested in 4 repeating trials with a 20 min interval (resting time). Prior to surgery mice were pre-trained to stay on the rod for 30 seconds, at 4 rpm.
On the technique in general: Falling from the rotarod earlier than controls is read as motor impairment.

Series [4] can be described thus: Human blood plasma stability assay. Format: in vitro ADME. The following applies: human, plasma; 0.25 mM, 37° C., in vitro; read-out: half-life (T1/2) in human blood plasma. The procedure:
Ligands (dimeric PSD-95 inhibitors) for the PDZ domain of PSD-95 were dissolved in human blood plasma (270 μL; 3H Biomedical, Sweden, cat no 1300-1-P50) to a concentration of 0.25 mM (30 μL, of 2.5 mM) and incubated at 37° C. Aliquots (30 μL) were removed at various time intervals (e.g. 0, 5, 10, 20, 40, 80, 160, 320, 960, 1280, 2550, 4560 and 7240 min) and quenched with 60 μL, trichloroacetic acid (aq., 5%). The aliquots were vortexed, and incubated 15 min, at 4° C. prior to centrifugation at 18,000 g for 2 min. The supernatants were analyzed by analytical RP-HPLC (UV218) to quantify compound relative to time zero, and also evaluated qualitatively by ESI-LC/MS in order to identify the compound (m/z) in the sample. Procaine (positive control) and procainamide (negative control) were investigated at 50 μM to validate the procedure. Ligand recoveries following the precipitation procedure were between 85-95%.

Series [5] can be described thus: Blood-brain barrier permeability of fluorescent analogues. It counts as in vivo, mice. The following applies: mice, conclusion for unlabeled compounds. Here is the method: VI.ii. Blood-brain Barrier Permeability. […] After injection of the compounds, the mice are perfused with paraformaldehyde and the brains are carefully removed, post-fixed in paraformaldehyde, processed into coronal sections, and quantified for fluorescence (Example 8).
The fluorescent ligands were injected intravenously (3 nmol/g) and the location of the ligands was detected by fluorescence microscopy of coronal brain slices (n=8) mice, was evaluated 2 hours after injection. Two sections of the brain, prior to and two after the anterior commissure (n=5), were selected for BBB permeability analysis. The anterior commissure (Bregma: −0.3) was used as a fix point in the brain in order to analyse anatomically identical brain sections. The intensity of the 5-FAM fluorophore was measured semi-quantitatively using a fluorescence microscopy system (Olympus System Microscope model BX-51, Denmark) with a 10× objective (Olympus 10×/0.15 UPlanApo) connected to a high-resolution microscope digital camera (Olympus model DP70), which transferred images to an image-capturing software (Image Pro Plus software). All images were taken using the same microscope settings and with constant camera exposure time. Intensities were quantified using the ImageJ software.
5-FAM-labeled derivative of Tat-NR2B9c is designated MS23. After injection of the compounds, the mice are perfused with paraformaldehyde and the brains are carefully removed, post-fixed in paraformaldehyde, processed into coronal sections, and quantified for fluorescence.
C57BL/6 mice with 6 hour post-surgical survival time were euthanized by cervical dislocation. C57BL/6 mice with 48 hour post-surgical survival were anesthetized with an overdosed of pentobarbital (the pharmacy of the Faculty of Life Sciences, University of Copenhagen, Denmark) in order to collect blood and tissue samples. All brains were carefully removed, frozen in gaseous CO2 and cut into 6 series of 30 μm coronal cryostat sections and stored at −80° C. until further use. C57BL/6J mice used to investigate the blood-brain barrier (BBB) permeability of AB143, AB145, AB148, and MS23 were deeply anesthetized and perfused through the left ventricle, using 10 ml chilled Soerensens phosphate buffer (SB) ([…], 125 mM Na2HPO4, pH 7.4) followed by 20 mL SB containing 4% paraformaldehyde (PFA). The brains were carefully removed and post-fixed in 4% PFA for 1 hour followed by immersion in SB containing 20% sucrose over night. The brains were frozen on gaseous CO2 and processed into 16 μm coronal cryostat sections.

Series [6] is described as follows: Physiological status of pMCAO mice (blood values, body weight, temperature, survival). Format: in vivo. The following applies: pMCAO 48 h experiment, 1 hour after surgery, mean ± SEM. The procedure: The physiological status of the mice was carefully monitored prior to and during pMCAO surgery in order to exclude the observed effects of treatment with dimeric PSD-95 inhibitors being due to secondary conditions (e.g. disease-related) resulting from the experimental procedure.
9.10 Body weight monitoring: The body weight of each mouse was registered during pre-training, before surgery, and at 24 and 48 hours after surgery and no differences were seen between the treatment groups (FIG. 13).
9.11 Temperature monitoring: The rectal temperature of the mouse was continuously measured using a thermocoupled probe connected to a Model Bat 12 unit (Physitemp). The temperature was measured prior to and 30 min after pMCAO in addition to 30 min and 2.5 hours after i.v. injection, i.e. 1 and 3 hours after pMCAO.
9.12 Blood gas analysis: One samples of venous blood was taken for blood gas analysis of PO2/PCO2 electrolytes, glucose, lactate, and hematocrit, 30 min after compound administration (1 hour after pMCAO). A capillary heparin coated tube was inserted along the inner corner of eye and turned until it penetrated the conjunctiva. A sample of blood (150 μl) was collected and stored on ice until gas analysis using the GEM Premier 300 blood gas instrument (Instrumentation Laboratory) Quality controls (QC ContrlIL9) were purchased from IL Sensor Systems. Also, no differences were detected in blood gas parameters (PO2/PCO2, pH, electrolytes, glu/lac), which were similar between the groups and within normal range, when compared to unmanipulated control mice (Table 4).

The test system of series [7] is CFA-induced mechanical allodynia/hyperalgesia. The series can be described thus: Complete Freund's adjuvant (CFA) inflammatory pain, von Frey test. Format: in vivo, mice. The following applies: administered concurrently with CFA, 1 hour and 24 hours after treatment.
Series [8] can be described thus: Spinal cord detection of fluorescent PSD-95 inhibitors. It counts as in vivo, mice. The following applies: conclusion for unlabeled compounds. The procedure:
To investigate if AB143 and AB145 are able to enter spinal cord tissue, they were administered to the mice by intraperitoneal injection (30 mg/kg). The drug-treated mice were decapitated 30 min after injection, and the spinal cord was carefully dissected out, to which 5% trichloroacetic acid (TCA) (300 μL per 0.1 g tissue) was added and the tissue homogenized with an ultrasonic homogenizer (on ice). The homogenated tissue was vortexed and centrifuged for 10 min (20000 g at 4° C.). The supernatant was transferred to a test tube and evaporated, and the residue was reconstituted in water and its fluoresence intensity was determined by using a fluorescence plate reader (excitation/emission:470/525 nm). For quantification of the compounds, a standard curve was prepared by spiking a known amount of AB143 and AB145 into spinal cord tissue from control mice prior to homogenization, followed by work-up and analysis similar to the drug-treated mice.

For “YGRKKRRQRRRKLSSIESDV [Tat-NR2B9c, reference compound]”, in series [1] (6 hour post-surgical survival), the “reduction of ischemic tissue damage (infarct volume) compared to saline” value is on record as “did not provide a statistically significant reduction; also recorded: not achieved”. Moreover, the “reduction in infarct size compared to saline” value in series [1] (48 hours after pMCAO) is recorded as “no statistically significant infarct reduction”. In addition, in series [2], the “grip strength asymmetry between right and left front paw” value is “observed”; the “total grip strength (both paws) compared to baseline” value was “lost a significant amount of grip strength; also recorded: significant reduced grip strength”. Besides, the “total time spent on the rod” value in series [3] was determined as 65.7 ± 3.6 s.
Regarding `CC[C@H](C)[C@H](NC(=O)CCOCCOCCN(CCOCCOCCC(=O)N[C@H](C(=O)N[C@@H](CCC(=O)O)C(=O)N[C@H](C(=O)N[C@@H](CC(=O)O)C(=O)N[C@H](C(=O)O)C(C)C)[C@@H](C)O)[C@@H](C)CC)C(=O)[C@H](CCCNC(=N)N)NC(=O)[C@H](CCCNC(=N)N)NC(=O)[C@H](CCCNC(=N)N)NC(=O)[C@H](CCC(N)=O)NC(=O)[C@H](CCCNC(=N)N)NC(=O)[C@H](CCCNC(=N)N)NC(=O)[C@H](CCCCN)NC(=O)[C@H](CCCCN)NC(=O)[C@H](CCCNC(=N)N)NC(=O)CNC(=O)[C@@H](N)Cc1ccc(O)cc1)C(=O)N[C@@H](CCC(=O)O)C(=O)N[C@H](C(=O)N[C@@H](CC(=O)O)C(=O)N[C@H](C(=O)O)C(C)C)[C@@H](C)O` [AB144, Tat-NPEG4(IETDV)2], the half-life at 0.25 mM in series [4] was found to be 81.7 ± 1.67 h. Besides, in series [5], the “ability to enter the brain (concluded from fluorescent surrogates)” value is recorded as “ability to cross the blood-brain barrier; also recorded: able to enter the brain”. Besides, the “blood pH” value in series [6] (3 nmol/g i.v.) amounted to 7.16 ± 0.01. In series [6], the Hct was 43.5 ± 0.9%, the “[Ca2+]” value is given as 1.30 ± 0.02 mmol/L, the “[K+]” value stood at 5.2 ± 0.20 mmol/L and the “[Lactate]” value stood at 0.93 ± 0.07 mmol/L. In series [6], the “[Na+]” value is listed as 148 ± 2.0 mmol/L, the pCO2 is listed as 95.7 ± 2.3 mmHg and the pO2 worked out at 50.2 ± 2.2 mmHg. For the same compound, in series [2], the “grip strength asymmetry between right and left front paw” value is “no asymmetry and not”; the “total grip strength (both paws) compared to baseline” value is “no significant change in total grip strength; also recorded: No difference compared to baseline”. The “total time spent on the rod” value in series [3] is 83.5 ± 4.1 s. In addition, the “short term learning skill improvement on rotarod compared to saline” value in series [3] (trials T1-T4) is on record as “more pronounced short term learning skill improvement”. The CFA-induced mechanical hyperalgesia entry in series [7] was “prevented the development of CFA-induced mechanical hyperalgesia”. For the same compound, the “ability to enter spinal cord tissue (concluded from fluorescent surrogates)” value in series [8] is listed as “able to enter CNS spinal cord tissue at relevant concentrations”.
